The subject of test [1] is wild-type VSV-G-3CL^pro-L. The experiment in a line: microbe, parasite or virus in culture. In kind it is cell-based.
The subject of test [2] is recombinant wt SARS-CoV-2-mCherry (rWA1). The experiment in a line: microbe, parasite or virus in culture. The test is classed as cell-based.

Drawing on paper PMC9765458 (Science Translational Medicine, 2022), this text covers replication inhibited and IC50 for one compound.

The structures appear in SMILES notation. Like-named read-outs stand apart in the source and are kept apart here.

With `CC(C)(C)[C@H](NC(=O)C(F)(F)F)C(=O)N1C[C@H]2[C@@H]([C@H]1C(=O)N[C@H](C#N)C[C@@H]1CCNC1=O)C2(C)C` [Nirmatrelvir, nirmatrelvir], the replication inhibited in test [1] is recorded as 10^6 fold. Also, the IC50 in test [1] (Vesicular stomatitis virus, BHK-21, 24 h, read-out: half maximal inhibitor concentration (IC50) of virus replication) was around 185 nM; in test [2] (Severe acute respiratory syndrome coronavirus 2, read-out: IC50 48 hpi), 8.68 nM; in test [2] (Severe acute respiratory syndrome coronavirus 2, read-out: IC50 72 hpi), 8.51 nM.
